Target: T1, Tyrosinase (Agaricus bisporus, UniProt O42713)
T1 sequence (O42713 whole entry): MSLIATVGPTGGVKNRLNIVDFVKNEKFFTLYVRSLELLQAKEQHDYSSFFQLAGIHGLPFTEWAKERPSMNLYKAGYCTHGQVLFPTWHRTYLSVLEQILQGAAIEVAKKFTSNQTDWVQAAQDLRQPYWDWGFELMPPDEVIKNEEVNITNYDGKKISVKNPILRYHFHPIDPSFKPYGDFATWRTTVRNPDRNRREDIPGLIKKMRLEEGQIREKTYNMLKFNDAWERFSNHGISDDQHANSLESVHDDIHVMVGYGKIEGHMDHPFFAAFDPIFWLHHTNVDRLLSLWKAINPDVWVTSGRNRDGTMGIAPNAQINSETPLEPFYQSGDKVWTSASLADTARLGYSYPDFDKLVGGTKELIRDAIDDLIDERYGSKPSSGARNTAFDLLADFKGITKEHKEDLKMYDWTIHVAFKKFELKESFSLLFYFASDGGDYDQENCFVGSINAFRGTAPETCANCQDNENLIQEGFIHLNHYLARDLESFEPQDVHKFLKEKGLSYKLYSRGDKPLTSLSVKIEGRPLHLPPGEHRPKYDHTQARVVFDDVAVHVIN
Description: Inhibition of mushroom tyrosinase using L-tyrosine as substrate measured after 20 mins by spectrophotometric method

| IC50 [µM] | SMILES |
| --- | --- |
| > 500 | CCOc1cc(C(C)C)c(C(=O)CCC(=O)OC)cc1C |
| > 500 | CCOc1cc(C(C)C)c(C(=O)CCC(=O)OCc2ccccc2)cc1C |
| > 500 | CCOc1cc(C)c(C(=O)CCC(=O)OCc2ccccc2)cc1C(C)C |
| 212 | CCOC(=O)CCC(=O)c1cc(C(C)C)c(OCC)cc1C |
| > 500 | CCOc1cc(C)c(C(=O)CCC(=O)O)cc1C(C)C |
| 191 | CCCCOC(=O)CCC(=O)c1cc(C(C)C)c(OCC)cc1C |
| 218 | CCCOC(=O)CCC(=O)c1cc(C)c(OCC)cc1C(C)C |
| > 500 | CCOC(=O)CCC(=O)c1cc(C)c(OCC)cc1C(C)C |
| > 500 | Cc1ccc(C(C)C)cc1O [CARVACROL] |
| > 500 | CCOc1cc(C)ccc1C(C)C |
| 126 | C=CCOC(=O)CCC(=O)c1cc(C(C)C)c(OCC)cc1C |
| 154 | CCCOC(=O)CCC(=O)c1cc(C(C)C)c(OCC)cc1C |
| 176 | CCCCOC(=O)CCC(=O)c1cc(C)c(OCC)cc1C(C)C |
| > 500 | CCOc1cc(C(C)C)c(C(=O)CCC(=O)O)cc1C |
| 102 | C/C=C/COC(=O)CCC(=O)c1cc(C(C)C)c(OCC)cc1C |
| > 500 | CCOc1cc(C(C)C)ccc1C |
| > 500 | CCOc1cc(C)c(C(=O)CCC(=O)OC)cc1C(C)C |
| 244 | C/C=C/COC(=O)CCC(=O)c1cc(C)c(OCC)cc1C(C)C |

— ChEMBL document CHEMBL4308868 (Bioorg Med Chem Lett, 2019)
